Test results taken from patent US4725683A, “Fluorophenoxyphenoxypropionates and derivatives thereof” (The Dow Chemical Company, priority 1985, dated 1988).

How the values were obtained:
Experiment in all cases: Preemergent activity
Type in all cases: in vivo
[1] = tested on: Wild Oats; conditions: Avena fatua, pre-emergence, read-out: Preemergence Control; for pest or weed control at 140 g/ha: 0.14 kgs/hectare; for pest or weed control at 280 g/ha: 0.28 kgs/hectare; for pest or weed control at 560 g/ha: 0.56 kgs/hectare; for pest or weed control at 1120 g/ha: 1.12 kgs/hectare; for pest or weed control at 70 g/ha: 0.07 kgs/hectare
Protocol: (§1) In a representative operation, 2-[4-(2-fluoro-4-trifluoromethylphenoxy)phenoxy]propionic acid methyl ester, to be utilized in a series of tests, is dissolved in acetone to one half of the final volume (twice the final concentration) to be used and the acetone solution in each case is admixed with an equal volume of water containing 0.1 percent by weight of Tween-20 surface active material (Tween-20 is a trademark of Atlas Chemical Company). The composition, generally in the nature of an emulsion, was employed to treat separate respective seed beds of sandy loam soil of good nutrient content wherein each seed bed contained separate groups of good viable seeds, each group being of one of a known plant species. The various beds were positioned side by side and exposed to substantially identical conditions of temperature and light. Each bed was maintained so as to prevent any interaction with the test compound in different seed beds. Each seed bed was treated with the composition as a spray employing conventional spraying equipment to deposit a predetermined amount of the compound uniformly throughout the surface of the bed. Another seed bed was treated only with the acetone-Tween-20 water mixture with no chemical added to serve as a control.

[2] = tested on: Johnson Grass; conditions: Sorghum halepense, pre-emergence, read-out: Preemergence Control; for pest or weed control at 140 g/ha: 0.14 kgs/hectare; for pest or weed control at 280 g/ha: 0.28 kgs/hectare; for pest or weed control at 560 g/ha: 0.56 kgs/hectare; for pest or weed control at 1120 g/ha: 1.12 kgs/hectare; for pest or weed control at 70 g/ha: 0.07 kgs/hectare
Protocol: as §1

[3] = tested on: Wheat; conditions: Triticum aestivum, pre-emergence, read-out: Preemergence Control; for plant injury at 70 g/ha: 0.07 kgs/hectare; for plant injury at 140 g/ha: 0.14 kgs/hectare; for plant injury at 280 g/ha: 0.28 kgs/hectare; for plant injury at 560 g/ha: 0.56 kgs/hectare; for plant injury at 1120 g/ha: 1.12 kgs/hectare
Protocol: as §1

[4] = tested on: Yellow Foxtail; conditions: Setaria, pre-emergence, read-out: Preemergence Control; for pest or weed control at 140 g/ha: 0.14 kgs/hectare; for pest or weed control at 280 g/ha: 0.28 kgs/hectare; for pest or weed control at 560 g/ha: 0.56 kgs/hectare; for pest or weed control at 1120 g/ha: 1.12 kgs/hectare; for pest or weed control at 70 g/ha: 0.07 kgs/hectare
Protocol: as §1

[5] = tested on: Barnyard Grass; conditions: Echinochloa crus-galli, pre-emergence, read-out: Preemergence Control; for pest or weed control at 140 g/ha: 0.14 kgs/hectare; for pest or weed control at 280 g/ha: 0.28 kgs/hectare; for pest or weed control at 560 g/ha: 0.56 kgs/hectare; for pest or weed control at 1120 g/ha: 1.12 kgs/hectare; for pest or weed control at 70 g/ha: 0.07 kgs/hectare
Protocol: as §1

| SMILES | pest or weed control at 140 g/ha [1] [%] | pest or weed control at 280 g/ha [1] [%] | pest or weed control at 560 g/ha [1] [%] | pest or weed control at 1120 g/ha [1] [%] | pest or weed control at 140 g/ha [2] [%] | pest or weed control at 280 g/ha [2] [%] | pest or weed control at 560 g/ha [2] [%] | pest or weed control at 1120 g/ha [2] [%] | plant injury at 70 g/ha [3] [%] | plant injury at 140 g/ha [3] [%] | plant injury at 280 g/ha [3] [%] | plant injury at 560 g/ha [3] [%] | plant injury at 1120 g/ha [3] [%] | pest or weed control at 140 g/ha [4] [%] | pest or weed control at 280 g/ha [4] [%] | pest or weed control at 560 g/ha [4] [%] | pest or weed control at 1120 g/ha [4] [%] | pest or weed control at 140 g/ha [5] [%] | pest or weed control at 560 g/ha [5] [%] | pest or weed control at 1120 g/ha [5] [%] | other results |
| --- | --- | --- | --- | --- | --- | --- | --- | --- | --- | --- | --- | --- | --- | --- | --- | --- | --- | --- | --- | --- | --- |
| C=CCNC(=O)C(C)Oc1ccc(Oc2ccc(Br)cc2F)cc1 (stereo not shown) | 80 | 90 | 80 | 90 | 0 | 50 | 90 | 100 | 0 | 0 | 0 | 0 | 0 | 0 | 30 | 90 | 100 | 0 | 100 | 100 | pest or weed control at 280 g/ha [5]: 100% |
| CC(Oc1ccc(Oc2ccc(Br)cc2F)cc1)C(=O)O (stereo not shown) [OH, 2-(4-(4-Bromo-2-fluorophenoxy)phenoxy)propionic acid] | 100 | 90 | 95 | 100 | 60 | 80 | 100 | 100 | 0 | 0 | 0 | 0 | 30 | 0 | 90 | 100 | 100 | 95 | 100 | 100 | pest or weed control at 70 g/ha [1]: 0%; pest or weed control at 70 g/ha [2]: 0%; pest or weed control at 70 g/ha [4]: 0%; pest or weed control at 70 g/ha [5]: 50%; pest or weed control at 280 g/ha [5]: 100% |
| C=CCOC(=O)C(C)Oc1ccc(Oc2ccc(Br)cc2F)cc1 (stereo not shown) [OCH2 CCH2] | 0 | 40 | 70 | 70 | 0 | 80 | 90 | 100 | 0 | 0 | 0 | 0 | 70 | 30 | 90 | 100 | 100 | 100 | 100 | 100 | pest or weed control at 70 g/ha [1]: 0%; pest or weed control at 70 g/ha [2]: 0%; pest or weed control at 70 g/ha [4]: 30%; pest or weed control at 70 g/ha [5]: 95%; pest or weed control at 280 g/ha [5]: 100% |
| Cc1cc(Cl)ccc1NC(=O)C(C)Oc1ccc(Oc2ccc(Br)cc2F)cc1 (stereo not shown) | 0 | – | 0 | 90 | 0 | – | 0 | 60 | 0 | 0 | 0 | 0 | 40 | 0 | – | 70 | 100 | 0 | 0 | 100 | – |
